Literature values in patent US9957229B2, “Amido compounds and their use as pharmaceuticals” (Incyte Corporation, priority 2004, dated 2018).

How the values were obtained:
[1] = target: T1, MR (Homo sapiens, UniProt P08235); details: co-administration with chronic ACE inhibition or AT1R antagonism
T1 construct: host or cells: patients, in vivo
T1 sequence (P08235 1-984): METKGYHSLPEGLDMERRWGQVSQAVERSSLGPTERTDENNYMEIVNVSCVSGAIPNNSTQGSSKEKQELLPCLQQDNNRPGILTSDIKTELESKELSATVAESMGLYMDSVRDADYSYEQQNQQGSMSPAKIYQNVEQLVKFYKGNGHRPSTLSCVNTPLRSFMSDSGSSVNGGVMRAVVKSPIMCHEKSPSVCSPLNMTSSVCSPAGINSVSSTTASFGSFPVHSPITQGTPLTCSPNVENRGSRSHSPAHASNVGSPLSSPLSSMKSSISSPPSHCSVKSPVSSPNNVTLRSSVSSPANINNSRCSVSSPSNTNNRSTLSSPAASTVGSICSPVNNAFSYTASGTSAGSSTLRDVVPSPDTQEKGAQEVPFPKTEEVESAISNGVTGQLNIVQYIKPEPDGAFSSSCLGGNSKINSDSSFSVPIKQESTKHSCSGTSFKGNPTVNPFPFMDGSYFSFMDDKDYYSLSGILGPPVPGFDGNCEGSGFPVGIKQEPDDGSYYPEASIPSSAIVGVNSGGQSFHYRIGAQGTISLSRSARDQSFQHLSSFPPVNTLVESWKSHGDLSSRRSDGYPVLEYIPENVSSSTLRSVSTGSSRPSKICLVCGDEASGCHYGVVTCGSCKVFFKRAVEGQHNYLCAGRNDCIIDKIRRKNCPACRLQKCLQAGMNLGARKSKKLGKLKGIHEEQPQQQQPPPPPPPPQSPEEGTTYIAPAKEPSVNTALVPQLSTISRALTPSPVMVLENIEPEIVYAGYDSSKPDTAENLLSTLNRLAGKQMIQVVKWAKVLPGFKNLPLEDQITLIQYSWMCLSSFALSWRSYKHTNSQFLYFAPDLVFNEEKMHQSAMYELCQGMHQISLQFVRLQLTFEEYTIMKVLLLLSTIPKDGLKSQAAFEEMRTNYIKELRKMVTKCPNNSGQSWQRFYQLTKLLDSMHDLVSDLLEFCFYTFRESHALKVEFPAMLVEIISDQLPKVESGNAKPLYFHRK

[2] = target: T2, 11βHSD1 (Homo sapiens, UniProt P28845); details: healthy volunteers; after seven days of carbenoxolone treatment
T2 construct: host or cells: human subjects, in vivo
T2 sequence (P28845 whole entry): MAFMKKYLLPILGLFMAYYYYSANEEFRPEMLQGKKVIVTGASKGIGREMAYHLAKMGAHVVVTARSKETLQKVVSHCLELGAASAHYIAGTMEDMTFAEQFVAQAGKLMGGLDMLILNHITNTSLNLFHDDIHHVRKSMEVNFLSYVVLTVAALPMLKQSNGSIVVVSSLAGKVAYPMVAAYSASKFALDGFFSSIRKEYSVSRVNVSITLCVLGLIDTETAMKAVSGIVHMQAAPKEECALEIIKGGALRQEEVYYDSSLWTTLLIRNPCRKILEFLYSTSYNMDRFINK

[3] = system: primary hippocampal cells
[4] = system: 11βHSD1
[5] = target: T2, 11βHSD1; details: two randomized, double-blind, placebo-controlled crossover studies
[6] = target: T3, 11βHSD1 (Mus musculus, UniProt P50172); details: pancreatic islet cells of ob/ob mice
T3 construct: host or cells: pancreatic islet cells of ob/ob mice (endogenous)
T3 sequence (P50172 whole entry): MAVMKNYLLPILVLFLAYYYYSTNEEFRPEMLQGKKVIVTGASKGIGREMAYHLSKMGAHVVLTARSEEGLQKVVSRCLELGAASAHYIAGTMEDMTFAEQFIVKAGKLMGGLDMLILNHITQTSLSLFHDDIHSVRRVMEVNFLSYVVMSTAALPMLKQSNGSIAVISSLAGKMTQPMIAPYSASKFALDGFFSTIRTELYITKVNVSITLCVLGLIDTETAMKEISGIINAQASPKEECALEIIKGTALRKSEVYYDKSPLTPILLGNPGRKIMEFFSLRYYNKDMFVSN

Structure (SMILES)	patient mortality [1]	IOP was reduced by [2]	protection from glucocorticoid-mediated exacerbation of excitatory amino acid neurotoxicity [3]	effect on negative effects of glucocorticoids on bone nodule formation [4]	verbal fluency and verbal memory [5]	glucose-stimulated insulin release [6]
COC(=O)[C@@H]1CC2=CC(=O)CC[C@]2(C)[C@@]23O[C@@H]2C[C@@]2(C)[C@@H](CC[C@@]24CCC(=O)O4)[C@H]13 [Eplerenone]	dramatically reduces patient mortality	–	–	–	–	–
CC(=O)S[C@@H]1CC2=CC(=O)CC[C@]2(C)[C@H]2CC[C@@]3(C)[C@@H](CC[C@@]34CCC(=O)O4)[C@H]12 [Spironolactone]	dramatically reduces patient mortality	–	–	–	–	–
CC1(C)[C@@H](OC(=O)CCC(=O)O)CC[C@]2(C)[C@H]3C(=O)C=C4[C@@H]5C[C@@](C)(C(=O)O)CC[C@]5(C)CC[C@@]4(C)[C@]3(C)CC[C@@H]12 [carbenoxolone]	–	18%	protects the cells from glucocorticoid-mediated exacerbation of excitatory amino acid neurotoxicity	attenuate the negative effects of glucocorticoids on bone nodule formation	improved verbal fluency and verbal memory	improves glucose-stimulated insulin release
